Results published in the NIST ThermoML archive (doi:10.1021/je800429j).
± gives the expanded uncertainty stated by the source.

Settings: 283.15 K; 101.33 kPa; Liquid; Pycnometric method

mass density: 1004.2 ± 1.6 kg/m3
SMILES: CCCCCC(=O)OCC(COC(=O)CCCCC)(COC(=O)CCCCC)COC(=O)CCCCC [pentaerythritol tetrahexanoate]
